Measured values from US6337401B1, “Fluoromethoxyacrylic acid derivatives and their use as pest control agents” (Bayer Aktiengesellschaft, priority 1995, dated 2002).

How the values were obtained:
Format in all cases: in vivo
[1] = test system: Erysiphe graminis f.sp. hordei; assay: Erysiphe test (barley)/protective; conditions: protective spray, application rate 250 g/ha, evaluation 7 days after inoculation
Experimental: Erysiphe Test (Barley)/Protective Solvent: 10 parts by weight of N-methyl-pyrrolidone Emulsifier: 0.6 part by weight of alkylaryl polyglycol ether To produce a suitable preparation of active compound, 1 part by weight of active compound is mixed with the stated amounts of solvent and emulsifier, and the concentrate is diluted with water to the desired concentration. To test for protective activity, young plants are sprayed with the preparation of active compound at given application rate. After the spray coating has dried on, the plants are dusted with spores of Erysiphe graminis f.sp. hordei. The plants are placed in a greenhouse at a temperature of about 20° C. and a relative atmospheric humidity of about 80%, in order to promote the development of powdery mildew pustules. Evaluation is carried out 7 days after the inoculation.

Plasmopara viticola = assay: Plasmopara test (vine)/protective; conditions: protective spray, active compound concentration 100 ppm, evaluation 6 days after inoculation
Experimental: Plasmopara Test (Vine)/Protective Solvent: 4.7 parts by weight of acetone Emulsifier: 0.3 part by weight of alkylaryl polyglycol ether To produce a suitable preparation of active compound, 1 part by weight of active compound is mixed with the stated amounts of solvent and emulsifier, and the concentrate is diluted with water to the desired concentration. To test for protective activity, young plants are sprayed with the preparation of active compound. After the spray coating has dried on, the plants are inoculated with an aqueous spore suspension of Plasmopara viticola and then remain in a humidity chamber at 20 to 22° C. and 100% relative atmospheric humidity for 1 day. The plants are then placed in a greenhouse at 21° C. and about 90% atmospheric humidity for 5 days. The plants are then moistened and placed in a humidity chamber for 1 day. Evaluation is carried out 6 days after the inoculation.

Uncinula necator = assay: Uncinula test (vine)/protective; conditions: protective spray, evaluation 14 days after inoculation
Experimental: (§1) Uncinula Test (Vine)/Protective Solvent: 4.7 parts by weight of acetone Emulsifier: 0.3 part by weight of alkylaryl polyglycol ether To produce a suitable preparation of active compound, 1 part by weight of active compound is mixed with the stated amounts of solvent and emulsifier, and the concentrate is diluted with water to the desired concentration. To test for protective activity, young plants are sprayed with the preparation of active compound. After the spray coating has dried on, the plants are dusted with conidia of the fungus Uncinula necator. The plants are then placed in a greenhouse at 23 to 24° C. and a relative atmospheric humidity of about 75%. Evaluation is effected 14 days after the inoculation.

Leptosphaeria nodorum = Leptosphaeria nodorum test (wheat)/protective; conditions: protective spray, application rate 250 g/ha, evaluation 10 days after inoculation
Experimental: Leptosphaeria nodorun Test (Wheat)/Protective Solvent: 10 parts by weight of N-methyl-pyrrolidone Emulsifier: 0.6 part by weight of alkylaryl polyglycol ether To produce a suitable preparation of active compound, 1 part by weight of active compound is mixed with the stated amounts of solvent and emulsifier, and the concentrate is diluted with water to the desired concentration. To test for protective activity, young plants are sprayed with the preparation of active compound. After the spray coating has dried on, the plants are sprayed with a spore suspension of Leptosphaeria nodorum. The plants remain for 48 hours in an incubation cabin at 20° C. and 100% relative atmospheric humidity. The plants are placed in a greenhouse at a temperature of about 15° C. and a relative atmospheric humidity of about 80%. Evaluation is effected 10 days after the inoculation.

Sphaerotheca fuliginea = assay: Sphaerotheca test (cucumber)/protective; conditions: protective spray, active compound concentration 100 ppm, evaluation 10 days after inoculation
Experimental: as §1, with “Sphaerotheca Test (Cucumber)/Protective” for “Uncinula Test (Vine)/Protective”, “Sphaerotheca Test (Cucumber)/Protective Solvent: 4.7” for “Uncinula Test (Vine)/Protective Solvent: 4.7”, “the fungus Sphaerotheca fuliginea. The plants” for “the fungus Uncinula necator. The plants”, “C. and at a relative” for “C. and a relative”, “Evaluation is carried out 10 days after” for “Evaluation is effected 14 days after”

Venturia inaequalis = assay: Venturia test (apple)/protective; conditions: protective spray, active compound concentration 10 ppm, evaluation 12 days after inoculation
Experimental: Venturia Test (Apple)/Protective Solvent: 4.7 parts by weight of acetone Emulsifier: 0.3 part by weight of alkylaryl polyglycol ether To produce a suitable preparation of active compound, 1 part by weight of active compound is mixed with the stated amounts of solvent and emulsifier, and the concentrate is diluted with water to the desired concentration. To test for protective activity, young plants are sprayed with the preparation of active compound. After the spray coating has dried on, the plants are inoculated with an aqueous conidia suspension of the apple scab causative organism Venturia inaequalis and then left in an incubation cabin at 20° C. and 100% relative atmospheric humidity for 1 day. The plants are then placed in a greenhouse at 20° C. and a relative atmospheric humidity of about 70%. Evaluation is carried out 12 days after the inoculation.

## COC(=O)/C(=C/OCF)c1ccccc1Oc1nc(-c2ccc(Br)cc2)ns1 [Example 2, methyl 2-{2-[3-(4-bromophenyl)-1,2,4-thiadiazol-5-yloxy]-phenyl}-3-fluoromethoxy-acrylate]
[1]
  Efficacy in % of the untreated control: 81%
Plasmopara viticola
  Efficacy in % of the untreated control: 100%
Uncinula necator; active compound concentration 10 ppm
  Efficacy: 100%
Uncinula necator; active compound concentration 25 ppm (table)
  Efficacy in % of the untreated control: 100%
Leptosphaeria nodorum
  Efficacy in %, relative to the untreated control: 88%
Sphaerotheca fuliginea
  Efficacy in % of the untreated control: 100%
Venturia inaequalis
  Efficacy in % of the untreated control: 100%
